Reference: patent US20250082705A1, “COMPOSITION FOR IMPROVING, PREVENTING, OR TREATING SLEEP DISORDERS COMPRISING DENDROPANAX MORBIFERA EXTRACTS” (JEJU PANATEK Co., Ltd., priority 2023, published 2025)

How the values were obtained:
[1] = ABTS radical scavenging assay; type: biochemical; conditions: mean ± standard deviation
Description: (§1) The antioxidant activity of the Dendropanax morbifera ethanol extract was analyzed using an ABTS (2,2′-azino-bis (3-ethylbenzothiazoline-6-sulfonic acid)) assay and a DPPH (1,1-diphenyl-2-picrylhydrazyl) assay. As the experimental result, the concentration of a sample that appeared when the absorbance decreased by 50% was represented as IC50, and ascorbic acid was used as a standard material.
Specifically, in the ABTS method, the ABTS solution was mixed with the extract at a ratio of 20:1 and the absorbance was measured. Light was blocked at room temperature and the results were confirmed at 414 nm after 60 minutes of reaction. The ABTS solution was obtained by dissolving 7.4 mM ABTS and 2.6 mM potassium persulfate in distilled water and stored at 4° C. for 1 day, and adjusted so that a blank value was 1.4 to 1.5.

[2] = DPPH radical scavenging assay; type: biochemical; conditions: mean ± standard deviation
Description: as §1
In the DPPH method, the absorbance was measured by mixing a
DPPH·methanol solution with the sample in a 1:1 ratio. Light was blocked at room temperature and the results were confirmed at 520 nm after 5 minutes of reaction. The DPPH·methanol solution was adjusted so that the blank value was 1.7 to 1.8.

## O=C1O[C@H]([C@@H](O)CO)C(O)=C1O [Ascorbic acid]
[1]
  ABTS IC50: 71 ± 2 µg/mL
[2]
  DPPH IC50: 25 ± 1 µg/mL
